IC50 data for 31 compounds are collected here from patent publication US8071625B2, “Certain chemical entities, compositions, and methods” (Cytokinetics, Inc., priority 2006, dated 2011).

The target in this assay is T1, crosslinked smooth muscle actomyosin (chicken gizzard smooth muscle myosin subfragment-1 crosslinked to cardiac or skeletal actin) (Gallus gallus, UniProt P10587).
T1 construct: chicken gizzard smooth muscle myosin subfragment-1; from tissue; host or cells: chicken gizzard
Kind of assay: Lead optimization pyruvate kinase/horseradish peroxidase/pyruvate oxidase-coupled ATPase assay (compound dose response). The conditions noted are these: read-out: IC50 Arithmetic Mean. The format is biochemical. In short, it runs like this: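 IC50 is the midpoint of a 4-parameter dose–response fit of Amplex Red fluorescence (480/615 nm). Buffer was 12 mM potassium PIPES pH 7.00 at 22 °C with 100 mM KCl, 2 mM MgCl2, 0.15 mM ATP and 2 mM phosphate, with PK/pyruvate oxidase/HRP coupling. Enzyme: smooth muscle myosin S1 crosslinked to cardiac or skeletal actin, dosed empirically by activity.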

Consider `CCc1ccc(NC(=O)OCC2(C(=O)NCc3ncccc3C)CCN(C(=O)CN)CC2)cc1` [[(1-(2-aminoacetyl)-4-{N-[(3-methyl(2-pyridyl))methyl]carbamoyl}(4-piperidyl))methoxy]-N-(4-ethylphenyl)carboxamide], for which the IC50 is 2980 nM.
In the case of `CCc1ccc(NC(=O)OCC2(C(=O)NCc3ccc(Cl)cc3F)CCN(C(=O)CN)CC2)cc1` [[(1-(2-aminoacetyl)-4-{N-[(4-chloro-2-fluorophenyl)methyl]carbamoyl}(4-piperidyl))methoxy]-N-(4-ethylphenyl)carboxamide], the IC50 was found to be 262 nM.
`CCc1ccc(NC(=O)OCC2(C(=O)NCc3ccc(Cl)cc3C)CCN(C(=O)CN)CC2)cc1` [[(1-(2-aminoacetyl)-4-{N-[(4-chloro-2-methylphenyl)methyl]carbamoyl}(4-piperidyl))methoxy]-N-(4-ethylphenyl)carboxamide]: the IC50 stood at 145 nM.
The result for `CCc1ccc(NC(=O)OCC2(C(=O)NCc3ccc(Cl)cc3)CCN(C(=O)CN)CC2)cc1` [[(1-(2-aminoacetyl)-4-{N-[(4-chlorophenyl)methyl]carbamoyl}(4-piperidyl))methoxy]-N-(4-ethylphenyl)carboxamide] reads 1280 nM.
The result for `CCc1ccc(NC(=O)OCC2(C(=O)NCc3ccc(F)cc3)CCN(C(=O)CN)CC2)cc1` [[(1-(2-aminoacetyl)-4-{N-[(4-fluorophenyl)methyl]carbamoyl}(4-piperidyl))methoxy]-N-(4-ethylphenyl)carboxamide] reads 1100 nM.
The same measure for `CCc1ccc(NC(=O)OCC2(C(=O)NCc3ncc[nH]3)CCN(C(=O)CNC(=O)OC(C)(C)C)CC2)cc1` [[(1-{2-[(tert-butoxy)carbonylamino]acetyl}-4-[N-(imidazol-2-ylmethyl)carbamoyl](4-piperidyl))methoxy]-N-(4-ethylphenyl)carboxamide]: 1770 nM; for `CCc1ccc(NC(=O)OCC2(C(=O)NCc3ccc(F)cc3Cl)CCN(C(=O)CNC(=O)OC(C)(C)C)CC2)cc1` [[(1-{2-[(tert-butoxy)carbonylamino]acetyl}-4-{N-[(2-chloro-4-fluorophenyl)methyl]carbamoyl}(4-piperidyl))methoxy]-N-(4-ethylphenyl)carboxamide]: 1080 nM; for `CC(C)(C)OC(=O)NCC(=O)N1CCC(COC(=O)Nc2ccc(C(F)(F)F)cc2)(C(=O)NCc2cccc(Cl)c2F)CC1` [[(1-{2-[(tert-butoxy)carbonylamino]acetyl}-4-{N-[(3-chloro-2-fluorophenyl)methyl]carbamoyl}(4-piperidyl))methoxy]-N-[4-(trifluoromethyl)phenyl]carboxamide]: 6560 nM.
With `Cc1c(Cl)cccc1CNC(=O)C1(COC(=O)Nc2ccc(C(F)(F)F)cc2)CCN(C(=O)CNC(=O)OC(C)(C)C)CC1` [[(1-{2-[(tert-butoxy)carbonylamino]acetyl}-4-{N-[(3-chloro-2-methylphenyl)methyl]carbamoyl}(4-piperidyl))methoxy]-N-[4-(trifluoromethyl)phenyl]carboxamide], the IC50 was found to be 5640 nM.
Regarding `Cc1c(F)cccc1CNC(=O)C1(COC(=O)Nc2ccc(C(F)(F)F)cc2)CCN(C(=O)CNC(=O)OC(C)(C)C)CC1` [[(1-{2-[(tert-butoxy)carbonylamino]acetyl}-4-{N-[(3-fluoro-2-methylphenyl)methyl]carbamoyl}(4-piperidyl))methoxy]-N-[4-(trifluoromethyl)phenyl]carboxamide], the IC50 worked out at 3180 nM.
The result for `CCc1ccc(NC(=O)OCC2(C(=O)NCc3cccc(F)c3)CCN(C(=O)CNC(=O)OC(C)(C)C)CC2)cc1` [[(1-{2-[(tert-butoxy)carbonylamino]acetyl}-4-{N-[(3-fluorophenyl)methyl]carbamoyl}(4-piperidyl))methoxy]-N-(4-ethylphenyl)carboxamide] reads 8240 nM; that for `CCc1ccc(NC(=O)OCC2(C(=O)NCc3ccc(Cl)cc3)CCN(C(=O)CNC(=O)OC(C)(C)C)CC2)cc1` [[(1-{2-[(tert-butoxy)carbonylamino]acetyl}-4-{N-[(4-chlorophenyl)methyl]carbamoyl}(4-piperidyl))methoxy]-N-(4-ethylphenyl)carboxamide], 14500 nM.
The same measure for `CCc1ccc(NC(=O)OCC2(C(=O)NCc3ccc(F)cc3)CCN(C(=O)CNC(=O)OC(C)(C)C)CC2)cc1` [[(1-{2-[(tert-butoxy)carbonylamino]acetyl}-4-{N-[(4-fluorophenyl)methyl]carbamoyl}(4-piperidyl))methoxy]-N-(4-ethylphenyl)carboxamide]: 10100 nM; for `CCc1ccc(NC(=O)OC[C@@H](C)N(C)C(=O)NCc2ccccc2Cl)cc1` [[(2R)-2-({[(2-chlorophenyl)methyl]amino}-N-methylcarbonylamino)propoxy]-N-(4-ethylphenyl)carboxamide]: 6810 nM; for `CCc1ccc(NC(=O)OCC2(C(=O)NCc3cccc(Cl)c3Cl)CCN(C(=O)CNC(=O)OC(C)(C)C)CC2)cc1` [[(4-{N-[(2,3-dichlorophenyl)methyl]carbamoyl}-1-{2-[(tert-butoxy)carbonylamino]acetyl}(4-piperidyl))methoxy]-N-(4-ethylphenyl)carboxamide]: 313 nM.
The same measure for `CC(C)(C)OC(=O)NCC(=O)N1CCC(COC(=O)Nc2ccc(C(F)(F)F)cc2)(C(=O)NCc2cccc(Cl)c2Cl)CC1` [[(4-{N-[(2,3-dichlorophenyl)methyl]carbamoyl}-1-{2-[(tert-butoxy)carbonylamino]acetyl}(4-piperidyl))methoxy]-N-[4-(trifluoromethyl)phenyl]carboxamide]: 3720 nM.
Turning to `CCc1ccc(NC(=O)OCC2(C(=O)NCc3cccc(F)c3F)CCN(C(=O)CNC(=O)OC(C)(C)C)CC2)cc1` [[(4-{N-[(2,3-difluorophenyl)methyl]carbamoyl}-1-{2-[(tert-butoxy)carbonylamino]acetyl}(4-piperidyl))methoxy]-N-(4-ethylphenyl)carboxamide], the IC50 worked out at 1590 nM.
Consider `CCc1ccc(NC(=O)OCC2(C(=O)NCc3ccccc3Br)CCN(C(=O)CNC)CC2)cc1` [[(4-{N-[(2-bromophenyl)methyl]carbamoyl}-1-[2-(methylamino)acetyl](4-piperidyl))methoxy]-N-(4-ethylphenyl)carboxamide], for which the IC50 was 168 nM.
The result for `CCc1ccc(NC(=O)OCC2CN(C(=O)NCc3ccccc3Cl)CCO2)cc1` (stereo not shown) [[(4-{N-[(2-chlorophenyl)methyl]carbamoyl}morpholin-2-yl)methoxy]-N-(4-ethylphenyl)carboxamide] reads 11700 nM; that for `CCc1ccc(NC(=O)OCC2(C(=O)NCc3ccccc3Cl)CCC2)cc1` [[({N-[(2-chlorophenyl)methyl]carbamoyl}cyclobutyl)methoxy]-N-(4-ethylphenyl)carboxamide], 1880 nM; that for `CCOC(=O)c1ccc(NC(=O)OCC2(C(=O)NCc3ccccc3Cl)CCOCC2)cc1` [ethyl 4-{[(4-{N-[(2-chlorophenyl)methyl]carbamoyl}-2H-3,4,5,6-tetrahydropyran-4-yl)methoxy]carbonylamino}benzoate], 6390 nM.
The same measure for `CCc1ccc(NC(=O)OCC2(C(=O)OC)CCN(C(=O)CN)CC2)cc1` [methyl 1-(2-aminoacetyl)-4-{[N-(4-ethylphenyl)carbamoyloxy]methyl}piperidine-4-carboxylate]: 18000 nM.
The result for `CCc1ccc(NC(=O)OCC2(C(=O)NCc3ccccc3Cl)CCN(CC(=O)OC)CC2)cc1` [methyl 2-(4-{N-[(2-chlorophenyl)methyl]carbamoyl}-4-{[N-(4-ethylphenyl)carbamoyloxy]methyl}piperidyl)acetate] reads 1520 nM.
Turning to `COC(=O)c1ccccc1CNC(=O)C1(COC(=O)Nc2ccc(C(F)(F)F)cc2)CCN(C(=O)CN)CC1` [methyl 2-({[1-(2-aminoacetyl)-4-({N-[4-(trifluoromethyl)phenyl]carbamoyloxy}methyl)-4-piperidyl]carbonylamino}methyl)benzoate], the IC50 amounted to 2290 nM.
On to `CCc1ccc(NC(=O)NC2(C(=O)NCc3ccccc3Cl)CCN(C(=O)OC)C2)cc1` (stereo not shown) [methyl 3-{N-[(2-chlorophenyl)methyl]carbamoyl}-3-{[(4-ethylphenyl)amino]carbonylamino}pyrrolidinecarboxylate], for which the IC50 is 18600 nM.
The same measure for `CCc1ccc(NC(=O)OCC2(C(=O)NCc3ccccc3Cl)CCCN(C(=O)OC)C2)cc1` (stereo not shown) [methyl 3-{N-[(2-chlorophenyl)methyl]carbamoyl}-3-{[N-(4-ethylphenyl)carbamoyloxy]methyl}piperidinecarboxylate]: 474 nM.
Turning to `CCc1ccc(NC(=O)OCC2(C(=O)NCc3ccccc3Cl)CCN(C(=O)CCC(=O)OC)CC2)cc1` [methyl 4-(4-{N-[(2-chlorophenyl)methyl]carbamoyl}-4-{[N-(4-ethylphenyl)carbamoyloxy]methyl}piperidyl)-4-oxobutanoate], the IC50 came to 426 nM.
The same measure for `CCc1ccc(NC(=O)OCC2(C(=O)NCc3ccccc3Cl)CCN(C(=O)OC)CC2)cc1` [methyl 4-{N-[(2-chlorophenyl)methyl]carbamoyl}-4-{[N-(4-ethylphenyl)carbamoyloxy]methyl}piperidinecarboxylate]: 530 nM; for `COC(=O)c1ccc(NC(=O)OCC2(C(=O)NCc3ccccc3Cl)CCN(C(=O)CN)CC2)cc1` [methyl 4-{[(1-(2-aminoacetyl)-4-{N-[(2-chlorophenyl)methyl]carbamoyl}-4-piperidyl)methoxy]carbonylamino}benzoate]: 1810 nM.
The result for `COC(=O)c1ccc(NC(=O)OCC2(C(=O)NCc3ccccc3Cl)CCOCC2)cc1` [methyl 4-{[(4-{N-[(2-chlorophenyl)methyl]carbamoyl}-2H-3,4,5,6-tetrahydropyran-4-yl)methoxy]carbonylamino}benzoate] reads 3550 nM; that for `CCc1ccc(NC(=O)OC[C@H](C)N(CC(=O)OC(C)(C)C)C(=O)NCc2ccccc2Cl)cc1` [tert-butyl 2-(N-{(1S)-2-[N-(4-ethylphenyl)carbamoyloxy]-isopropyl}{[(2-chlorophenyl)methyl]amino}carbonylamino)acetate], 18500 nM.
